The values below come from patent US4435391A, “Dibenzoxazepine derivative, and pharmaceutical composition comprising the same” (Chugai Seiyaku Kabushiki Kaisha, priority 1980, dated 1984).

The test system of test [1] is cholesterol (TC) level of plasma. The test can be described thus: Plasma cholesterol (TC) in Triton-injected mice (Experiment 2). The test is classed as in vivo, mice of ddY strain. Particulars: Table 2, 150 mg/kg immediately and 8 hours after Triton WR-1399 500 mg/kg i.v., blood drawn 24 h after Triton; for inhibition in vivo: Mus musculus, iv, read-out: Percent Reduction TC (x ± S.E.). As for the experimental part: (§1) The mice of ddY strain weighing between 25 and 30 g were fasted overnight and then Triton WR-1399(500 mg/kg) (Ruger Chemicals Co.) was intravenously injected into the mice. Immediately and 8 hours after the injection, each mouse was administered 150 mg/kg of a test compound of this invention as suspended in 1% aqueous methylcellulose.
(§2) 24 Hours after the injection of Triton, the blood was drawn from the heart. The cholesterol (TC) and triglyuride (TG) levels of plasma were determined with RaBASuper (Chugai Seiyaku K.K., Japan).
(§3) As a positive control, chlofibrate were used.

For test [2], the system named is level of blood sugar (BG). The test can be described thus: Blood sugar (BG) level in alloxan-treated mice (Experiment 1). Particulars: Table 1; 300 mg/kg orally, 22 h after alloxan 75 mg/kg i.v.; blood drawn 48 h after alloxan; vs untreated mice. The test is classed as in vivo, male mice of ddY strain. On the procedure:
(§4) Male mice of ddY strain weighing between 25 and 30 g were divided into groups of 10 members each and administered intravenously 75 mg/kg of alloxan. Twenty-two hours later, each mouse was administered orally 300 mg/kg of a test compound of this invention as suspended in 1% gum arabic. […] The lipid peroxide level (TBA) of blood was determined with Lipoperoxide-Test Wako (Wako Pure Chemical Industries, Ltd., Japan). The level of blood sugar (BG) was determined with New Blood Sugar Test (Berlinger Mannheim AG., West Germany). […] As a positive control, tocopherol was used.

Test [3] relates to triglyuride (TG) level of plasma. The test can be described thus: Plasma triglyceride (TG) in Triton-injected mice (Experiment 2). The class given is in vivo, mice of ddY strain. Particulars: Table 2, 150 mg/kg immediately and 8 hours after Triton WR-1399 500 mg/kg i.v., blood drawn 24 h after Triton; for inhibition in vivo: Mus musculus, iv, read-out: Percent Reduction TG (x ± S.E.). As for the experimental part:
as §1, §2, §3

For test [4], the system named is lipid peroxide level (TBA) of blood. The test can be described thus: Lipid peroxide (TBA) level of blood in alloxan-treated mice (Experiment 1). The class given is in vivo, male mice of ddY strain. The following applies: Table 1, 300 mg/kg orally, 22 h after alloxan 75 mg/kg i.v., blood drawn 48 h after alloxan, vs untreated mice; for inhibition in vivo at 300 mg/kg: Mus musculus, po, read-out: Percent Reduction TBA (x ± S.E.). As for the experimental part: as §4

The test system of test [5] is platelets (platelet rich plasma). Kind of test: Inhibition of platelet aggregation in platelet rich plasma (Experiment 3). The test is classed as cell-based, SD strain rats. Particulars: for inhibition at 100 µM: Rattus norvegicus, Platelet. As for the experimental part: Platelet rich plasma samples were prepared from the blood of SD strain rats, and to 0.5 ml of the samples, test compounds in the form of a solution in dimethyl sulfoxide (DMSO) were added in such an amount that the concentration of the compounds in the mixture was 1×10^-4 M. The assay media containing aspirin were used as a control. After incubation for one minute, arachidonic acid, collagen and adenosine diphosphate (ADP) were added to the mixture in concentrations of 1×10^-4 M, 1.5×10^-3 M and 1×10^-6 M, respectively, to aggregate the platelets. The aggregation level was determined with an aggregometer. CORNING-EEL MODEL 16P (Manufactured by Evans Electro Selenium Ltd.) and the percent inhibition of platelets was calculated from the following equation: [formula]

Where [6] appears, read: Table 3 (own numbering), compound 1×10^-4 M, aggregation by ADP 1×10^-6 M, read-out: Percent Inhibition of Aggregation, ADP.
Setting [7] is: Table 3 (own numbering), compound 1×10^-4 M, aggregation by arachidonic acid 1×10^-4 M, read-out: Percent Inhibition of Aggregation, Arachidonic acid.
[8] abbreviates: Table 3 (own numbering), compound 1×10^-4 M, aggregation by collagen 1.5×10^-3 M, read-out: Percent Inhibition of Aggregation, Collagen.

Where two headings read alike, the source gives them in different places.

As for `CCOc1cccc2c1Oc1ccc(C(=O)O)cc1N=C2` [Compound 14], the figures for the inhibition in vivo in test [1] and in test [3] were 19.5% and 21.3%, respectively. The “Percent Reduction BG (x ± S.E.)” value in test [2] came to 18.7%. Also, the inhibition in vivo at 300 mg/kg in test [4] amounted to 63.4%.
For `CCOC(=O)c1ccc2c(c1)N=C(CC)c1cc(OC)cc(OC)c1O2` [Compound 16], the values for the inhibition in vivo in test [1] and in test [3] were 16.4% and 17.8%, respectively. For the same compound, the inhibition in vivo at 300 mg/kg in test [4] is 28.5%.
For `CCCCOC(=O)c1ccc2c(c1)N=Cc1cccc(OC)c1O2` [Compound 12], the inhibition in vivo in test [1] was 17.4%; in test [3], 19.3%. In test [4], the inhibition in vivo at 300 mg/kg is 19.7%. The inhibition at 100 µM in test [5] (setting [6]) came out at 35%; in test [5] (setting [7]), 43%; in test [5] (setting [8]), 37%.
As to `CCOC(=O)c1ccc2c(c1)N=C(C=Cc1ccccc1)c1cc(OC)ccc1O2` [Compound 17 (Table 1)], the inhibition at 100 µM stood at 46% in test [5] (setting [6]), 48% in test [5] (setting [7]) and 45% in test [5] (setting [8]).
As for `CC(=O)Oc1ccccc1C(=O)O` [aspirin, reference compound], the inhibition at 100 µM was determined as 17% in test [5] (read-out: Percent Inhibition of Aggregation, ADP); 100% in test [5] (read-out: Percent Inhibition of Aggregation, Arachidonic acid); 8% in test [5] (read-out: Percent Inhibition of Aggregation, Collagen).
For `CCOC(=O)C(C)(C)Oc1ccc(Cl)cc1` [chlofibrate, reference compound], the inhibition in vivo in test [1] stood at 13.8%; in test [3] it was 9.5%.
As to `CCOC(=O)c1ccc2c(c1)N=Cc1ccc(C)cc1O2` [Compound 3], the inhibition in vivo in test [1] was determined as 17.8%; in test [3], 18.7%. Moreover, the “Percent Reduction BG (x ± S.E.)” value in test [2] was found to be 16.5%. The inhibition in vivo at 300 mg/kg in test [4] amounted to 23%.
With `COC(=O)c1ccc2c(c1)N=Cc1cccc(OC)c1O2` [Compound 10], the inhibition in vivo in test [1] was determined as 20.7%; in test [3], 24.5%. The inhibition in vivo at 300 mg/kg in test [4] is 50.3%. Also, the inhibition at 100 µM in test [5] (setting [6]) stood at 36%; in test [5] (setting [7]), 38%; in test [5] (setting [8]) it was 34%.
Take `CCOC(=O)c1ccc2c(c1)N=C(c1ccccc1)c1ccc(OC)cc1O2` [Compound 18]: the inhibition in vivo in test [1] was 18.4 ± 2.9%; in test [3], 21.3 ± 3.2%. In addition, the inhibition in vivo at 300 mg/kg in test [4] came out at 41.7 ± 3.2%.
Consider `CCOC(=O)c1ccc2c(c1)N=C(c1ccccc1)c1ccc(OC)cc1O2` [Compound 18 (Table 1)], for which the inhibition at 100 µM in test [5] (setting [6]) was determined as 40%; in test [5] (setting [7]) it was 50%; in test [5] (setting [8]), 43%.
`CCCOC(=O)c1ccc2c(c1)N=Cc1cccc(OC)c1O2` [Compound 11]: the results for the inhibition in vivo in test [1] and in test [3] were 19.2% and 21.3%, respectively. Moreover, the inhibition in vivo at 300 mg/kg in test [4] came to 38.6%. For the same compound, the inhibition at 100 µM in test [5] (setting [6]) was 43%; in test [5] (setting [7]), 42%; in test [5] (setting [8]) it was 40%.
Regarding `COc1ccc2c(c1)Oc1ccc(C(=O)O)cc1N=C2C` [Compound 7], the inhibition in vivo in test [1] turned out to be 17.3%; in test [3] it was 18.8%. The “Percent Reduction BG (x ± S.E.)” value in test [2] is reported as 15.7%. Besides, in test [4], the inhibition in vivo at 300 mg/kg stood at 64.8%.
`CCOC(=O)c1ccc2c(c1)N=C(C=Cc1ccccc1)c1cc(OC)ccc1O2` [Compound 17]: the results for the inhibition in vivo in test [1] and in test [3] were 17.4 ± 3.5% and 19.7 ± 4.5%, respectively. In addition, the inhibition in vivo at 300 mg/kg in test [4] is 34.4 ± 2.9%.
Turning to `CCOC(=O)c1ccc2c(c1)N=C(c1cccc(C)c1)c1ccc(OC)cc1O2` [Compound 19], the inhibition in vivo in test [1] was determined as 20.1%; in test [3] it was 19.7%. Further, the inhibition in vivo at 300 mg/kg in test [4] was determined as 34.9%. For the same compound, the inhibition at 100 µM in test [5] (setting [6]) stood at 39%; in test [5] (setting [7]) it was 45%; in test [5] (setting [8]), 41%.
Consider `CC1=Nc2cc(C(=O)O)ccc2Oc2cc(C)ccc21` [Compound 8], for which the inhibition in vivo in test [1] came to 18.6%; in test [3] it was 19.3%. Further, the “Percent Reduction BG (x ± S.E.)” value in test [2] is 16.3%. Besides, the inhibition in vivo at 300 mg/kg in test [4] was 52%.
Consider `CCOC(=O)c1ccc2c(c1)N=C(C)c1cccc(OC)c1O2` [Compound 5 (Table 3)], for which the values for the inhibition at 100 µM in test [5] (setting [6]), in test [5] (setting [7]) and in test [5] (setting [8]) were 35%, 45% and 30%, respectively.
On to `O=C(O)c1ccc2c(c1)N=Cc1cc(Cl)ccc1O2` [Compound 13], for which the inhibition in vivo in test [1] was found to be 14.5%; in test [3] it was 15.2%. Further, the “Percent Reduction BG (x ± S.E.)” value in test [2] is reported as 10.4%. Besides, in test [4], the inhibition in vivo at 300 mg/kg was 18.3%.
In the same order, the values of `Cc1ccc2c(c1)C=Nc1cc(C(=O)O)ccc1O2` [Compound 15] are 17.7%, 19.4%, 16.5% and 23.8%.
Turning to `CCOC(=O)c1ccc2c(c1)N=C(CC)c1ccc(OC)cc1O2` [Compound 6], the inhibition in vivo in test [1] was found to be 19.5%; in test [3] it was 19.6%. Besides, the inhibition in vivo at 300 mg/kg in test [4] amounted to 54%.
Consider `Cc1c(C)c2c(c(C)c1O)CCC(C)(CCCC(C)CCCC(C)CCCC(C)C)O2` (stereo not drawn) [α-tocopherol, reference compound], for which, in test [4], the inhibition in vivo at 300 mg/kg was found to be 51.7%.
Regarding `CCOC(=O)c1ccc2c(c1)N=C(C)c1ccc(C)cc1O2` [Compound 3 (Table 3)], the inhibition at 100 µM in test [5] (setting [6]) turned out to be 50%; in test [5] (setting [7]) it was 55%; in test [5] (setting [8]), 43%.
Take `CCC1=Nc2cc(C(=O)O)ccc2Oc2cc(OC)ccc21` [Compound 9]: the inhibition in vivo worked out at 17.9% in test [1] and 18.5% in test [3]. Also, the “Percent Reduction BG (x ± S.E.)” value in test [2] is listed as 18.4%. In test [4], the inhibition in vivo at 300 mg/kg came to 67.7%.
As for “11-methyl-3-methoxydibenz[b,f][1,4]oxazepine-8-carboxylic acid [Compound 7 (Table 1)]”, in test [3], the “Percent Reduction TG (x ± S.E.)” value is 17.8%. For the same compound, in test [4], the “Percent Reduction TBA (x ± S.E.)” value was determined as 61.1%.
Take `CCOC(=O)c1ccc2c(c1)N=C(CC)c1cc(OC)cc(OC)c1O2` [Compound 16 (Table 1)]: the results for the inhibition at 100 µM in test [5] (setting [6]), in test [5] (setting [7]) and in test [5] (setting [8]) were 44%, 52% and 47%, respectively.
`CCOC(=O)c1ccc2c(c1)N=C(C)c1cccc(C)c1O2` [Compound 4 (Table 3)]: the results for the inhibition at 100 µM in test [5] (setting [6]), in test [5] (setting [7]) and in test [5] (setting [8]) were 51%, 60% and 48%, respectively.
On to “ethyl 11-methyl-3-methoxydibenz[b,f][1,4]oxazepine-8-carboxylate [Compound 5 (Table 1)]”, for which, in test [1], the “Percent Reduction TC (x ± S.E.)” value is listed as 18.4%. Moreover, in test [3], the “Percent Reduction TG (x ± S.E.)” value turned out to be 18.7%. Besides, in test [4], the “Percent Reduction TBA (x ± S.E.)” value is 35.2%. In test [5] (Table 3 (own numbering), compound 1×10^-4 M, aggregation by ADP 1×10^-6 M), the “Percent Inhibition of Aggregation, ADP” value came to 45%. Further, the “Percent Inhibition of Aggregation, Arachidonic acid” value in test [5] (Table 3 (own numbering), compound 1×10^-4 M, aggregation by arachidonic acid 1×10^-4 M) came to 63%. The “Percent Inhibition of Aggregation, Collagen” value in test [5] (Table 3 (own numbering), compound 1×10^-4 M, aggregation by collagen 1.5×10^-3 M) was found to be 50%.
As for `CCOC(=O)c1ccc2c(c1)N=C(CC)c1ccc(C)cc1O2` [Compound 4 (Table 1)], the inhibition at 100 µM came out at 50% in test [5] (setting [6]), 60% in test [5] (setting [7]) and 47% in test [5] (setting [8]).
For the compound `CCCC1=Nc2cc(C(=O)OCC)ccc2Oc2cc(C)ccc21` [Compound 20], the inhibition in vivo in test [1] was found to be 16.5%; in test [3], 17.4%. The inhibition in vivo at 300 mg/kg in test [4] stood at 39.6%. Besides, the inhibition at 100 µM in test [5] (setting [6]) is 47%; in test [5] (setting [7]) it was 60%; in test [5] (setting [8]), 50%.
